“Also recorded” adds a separate entry of the source.
How the values were obtained:
CYP3A = assay: Metabolism by and induction of hepatic enzyme CYP3A; format: in vitro ADME
[1] = Adverse events in healthy subjects treated with Compound 1 with and without cobicistat; format: in vivo, human
Experimental: (§1) Healthy subjects were treated with Compound 1 with or without pretreatment with cobicistat. A single 400 mg dose of Compound 1 was administered under fasted conditions. There was a 7-day washout between administrations of the two single doses of Compound 1. Compound 1 was administered alone on Day 1 of Period 1 and administered in the presence of cobicistat on Day 1 of Period 2. Cobicistat was administered at a dose of 150 mg once daily for three days, with the third dose preceding the single dose of Compound 1 by two hours. Blood samples were collected for pharmacokinetic analysis of Compound 1 on Day 1 of each period at the following time points 0 (predose), 0.5, 1, 1.5, 2, 3, 4, 6, 8, 10, and 24 hours after the single dose of Compound 1.
All six subjects were males between the ages of 31 and 52 years. Three of the 6 subjects (50%) treated with Compound 1 with and without cobicistat reported a total of 6 adverse events. Diarrhea, reported in 2 subjects, was the only adverse event reported by more than one subject. The other adverse events reported by a single subject each included: abdominal pain, back pain, groin pain, and upper respiratory tract infection. Three of the 6 adverse events were considered to be related to study drug: concurrent events of diarrhea and abdominal pain and the other case of diarrhea. All adverse events were reported in Period 2, after dosing of all study drugs had been completed.

[2] = Exposure of Compound 1 upon multiple-dose administration; format: in vivo
[3] = Single-dose pharmacokinetics of Compound 1 with or without cobicistat pretreatment in healthy subjects; format: in vivo, human
Experimental: as §1

[4] = 6 healthy male subjects, Compound 1 with and without cobicistat
[5] = single 400 mg Compound 1 with cobicistat 150 mg pretreatment vs alone
[6] = single 400 mg Compound 1 with cobicistat 150 mg pretreatment vs alone, lower bound over all subjects

For COc1cc(C)[nH]c(=O)c1CNC(=O)c1c(C)n([C@H](C)C2CCN(CC(F)(F)F)CC2)c2ccccc12 [Compound 1, (R)—N-((4-methoxy-6-methyl-2-oxo-1,2-dihydropyridin-3-yl)methyl)-2-methyl-1-(1-(1-(2,2,2-trifluoroethyl)piperidin-4-yl)ethyl)-1H-indole-3-carboxamide], the CYP3A induction (CYP3A) was “stronger inducer of CYP3A”, the Primary metabolizing enzyme (CYP3A) was “primarily metabolized by the hepatic enzyme CYP3A” and the “Number of subjects reporting diarrhea” value [1, 4] was 2 subjects. For the same molecule, the “Subjects reporting adverse events” value [1, 4] was 50%, the “Total number of adverse events reported” value [1, 4] was 6 and the “Severity of adverse events” value ([1]; with the exception of a moderate case of upper respiratory tract infection) was “mild in severity”. For the same molecule, the “Reduction in AUC with multiple doses” value [2] was “approximately 60%”, the half-life ([3]; male, human, plasma, oral, all subjects treated with Compound 1 and cobicistat) was < 5 h and the “Clearance decrease in the presence of cobicistat” value [3, 5] was 6.9 fold. The “Effect of cobicistat on Tmax” value [3, 5] was “unaffected”, the “Effect of cobicistat on terminal half-life (T1/2)” value [3, 5] was “unaffected; also recorded: little or no effect” and the “AUC increase in the presence of cobicistat, all subjects (least)” value [3, 6] was ≥ 4.9 fold. The “Cmax increase in the presence of cobicistat, all subjects (least)” value [3, 6] was ≥ 2.8 fold, the “Cmin increase in the presence of cobicistat, all subjects (least)” value [3, 6] was ≥ 19 fold and the “Exposure of Compound 1 400 mg with cobicistat 150 mg in healthy subjects compared with single 1600 mg dose of Compound 1 alone in patients with lymphoma” value ([3]; single dose) was “remarkably similar”.

From patent publication US20210000815A1, “PHARMACOKINETIC ENHANCEMENT OF EZH2 INHIBITORS THROUGH COMBINATION THERAPIES” (Constellation Pharmaceuticals, Inc., priority 2017, published 2021)
